For the experiment, the system named is WiDr cells expressing the human NTS1R. As to the kind of experiment: Cell uptake / internalization assay in WiDr cells. Type of experiment: cell-based. Conditions: confluent WiDr cells, 1 h, 37 °C, 250 fmol peptide, non-specific (1 μM NT) subtracted, average ± sd of 3 experiments in triplicate; for internalized fraction vs total added activity: acid wash then lysis. Here is the method: Human colorectal adenocarcinoma WiDr cells (LGC Promochem, Teddington, UK) expressing the human NTS1R [52] were cultured in McCoy’s GLUTAMAX-I (Gibco BRL, Life Technologies, Grand Island, NY, USA) supplemented by 10% (v/v) fetal bovine serum (FBS), 100 U/mL penicillin and 100 μg/mL streptomycin (all from Biochrom KG Seromed, Berlin, Germany). Cells were kept in a controlled humidified atmosphere containing 5% CO2 at 37 °C. Passages were performed every 4–5 days using a trypsin/EDTA (0.05%/0.02% w/v) solution. The overall cell association–internalization of ^99mTc-DT1, ^99mTc-DT5 and ^99mTc-DT6 was assessed in confluent WiDr cells. Briefly, the cells were seeded in six-well plates (~1 × 10^6 cells per well) 24 h before the experiment. Each of ^99mTc-DT1, ^99mTc-DT5 and ^99mTc-DT6 (approximately 150,000 cpm, 250 fmol total peptide in 150 μL of 0.5% BSA/PBS) was added alone (total) or in the presence of 1 μM NT (non-specific). Cells were incubated at 37 °C for 1 h and incubation was interrupted by placing the plates on ice, removing the supernatants and rapid rinsing with ice-cold 0.5% BSA/PBS. Cells were then treated 2 × 5 min with acid wash buffer (2 × 0.6 mL, 50 mM glycine buffer, pH 2.8, 0.1 M NaCl) at room temperature and supernatants were collected (membrane-bound fraction). After rinsing with 1 mL chilled 0.5% BSA/PBS, cells were lyzed by treatment with 1 N NaOH (2 × 0.6 mL) and lysates were collected (internalized fraction). Sample radioactivity was measured in the γ-counter (an automated well-type gamma counter with a NaI(Tl) 3′′ crystal, Canberra Packard Auto-Gamma 5000 series instrument) and total cell-associated (internalized + membrane bound) radioactivity was determined vs. total added activity. Results represent the average values ± sd of 3 experiments in triplicate.

“N4-βAla-Arg-Dab-Pro-Tyr-Ile-Leu-OH [^99mTc-DT5, ^99mTc-[N4-βAla^7,Dab^9]NT(7-13), ^99mTc-labeled acyclic tetraamine-coupled NT(7-13) analog DT5]”: the “internalized fraction vs total added activity” value stood at 3.2 ± 0.3% and the “NTS1R-specific cell uptake (internalized + membrane bound) vs total added activity” value was found to be 3.7 ± 0.3%.
For the substance “N4-βAla-Arg-Dab-Pro-Tyr-Tle-Leu-OH [^99mTc-DT6, ^99mTc-[N4-βAla^7,Dab^9,Tle^12]]NT(7-13), ^99mTc-labeled acyclic tetraamine-coupled NT(7-13) analog DT6]”, the “internalized fraction vs total added activity” value is given as 0.8 ± 0.4% and the “NTS1R-specific cell uptake (internalized + membrane bound) vs total added activity” value was 1.0 ± 0.4%.
With “N4-Gly-Arg-Arg-Pro-Tyr-Ile-Leu-OH [^99mTc-DT1, ^99mTc-[N4-Gly^7]NT(7-13), ^99mTc-labeled acyclic tetraamine-coupled NT(7-13) analog DT1]”, the “internalized fraction vs total added activity” value was 6.9 ± 2.1% and the “NTS1R-specific cell uptake (internalized + membrane bound) vs total added activity” value was found to be 10.1 ± 2.3%.
